Laboratory results from publication PMC7206119, “RIP1 inhibition blocks inflammatory diseases but not tumor growth or metastases” (Cell Death and Differentiation, 2019).

What was measured:
Assay in all cases: biochemical
Set-up in all cases: Thermo Fisher SelectScreen kinase panel: Z'-LYTE and Adapta activity, LanthaScreen binding
EPHB3 = EPHB3 (Homo sapiens, UniProt P54753)
Experimental: (§1) 5 88 GNE684 was tested in Thermo Fisher Scientific SelectScreen assay (Madison, WI) 89 against 221 representative kinases at a concentration of 10 µM, which is 476-fold greater than the Ki app 90 for GNE684 against human RIP1 in the RIP1 enzyme 91 assay. The kinase assays were carried out using Z'-LYTE and Adapta activity and 92 LanthaScreen binding assays (Thermo Fisher Scientific, Madison WI) following 93 protocols developed and performed by Thermo Fisher Scientific 94 (https://www.thermofisher.com/us/en/home/products-and-services/services/custom-95 services/screening-and-profiling-services/selectscreen-profiling-service/selectscreen-96 kinase-profiling-service.html). 97 GNE684 was also tested against 468 kinases in the KINOMEscan scanMAX kinase 98 binding assay panel at a concentration of 10 µM following protocols developed and 99 performed by DiscoverX (http://www.discoverx.com/kinase_profiling).

KIT = KIT (Homo sapiens, UniProt P10721)
Experimental: as §1

CHK1 = molecular target: T1, CHK1 (Homo sapiens, UniProt O14757)
T1 construct: gene CHEK1
Experimental: as §1

SIK2 = SIK2 (Homo sapiens, UniProt Q9H0K1)
Experimental: as §1

MAP4K4 = MAP4K4 (Homo sapiens, UniProt O95819)
MAP4K4, sequence (O95819 whole entry): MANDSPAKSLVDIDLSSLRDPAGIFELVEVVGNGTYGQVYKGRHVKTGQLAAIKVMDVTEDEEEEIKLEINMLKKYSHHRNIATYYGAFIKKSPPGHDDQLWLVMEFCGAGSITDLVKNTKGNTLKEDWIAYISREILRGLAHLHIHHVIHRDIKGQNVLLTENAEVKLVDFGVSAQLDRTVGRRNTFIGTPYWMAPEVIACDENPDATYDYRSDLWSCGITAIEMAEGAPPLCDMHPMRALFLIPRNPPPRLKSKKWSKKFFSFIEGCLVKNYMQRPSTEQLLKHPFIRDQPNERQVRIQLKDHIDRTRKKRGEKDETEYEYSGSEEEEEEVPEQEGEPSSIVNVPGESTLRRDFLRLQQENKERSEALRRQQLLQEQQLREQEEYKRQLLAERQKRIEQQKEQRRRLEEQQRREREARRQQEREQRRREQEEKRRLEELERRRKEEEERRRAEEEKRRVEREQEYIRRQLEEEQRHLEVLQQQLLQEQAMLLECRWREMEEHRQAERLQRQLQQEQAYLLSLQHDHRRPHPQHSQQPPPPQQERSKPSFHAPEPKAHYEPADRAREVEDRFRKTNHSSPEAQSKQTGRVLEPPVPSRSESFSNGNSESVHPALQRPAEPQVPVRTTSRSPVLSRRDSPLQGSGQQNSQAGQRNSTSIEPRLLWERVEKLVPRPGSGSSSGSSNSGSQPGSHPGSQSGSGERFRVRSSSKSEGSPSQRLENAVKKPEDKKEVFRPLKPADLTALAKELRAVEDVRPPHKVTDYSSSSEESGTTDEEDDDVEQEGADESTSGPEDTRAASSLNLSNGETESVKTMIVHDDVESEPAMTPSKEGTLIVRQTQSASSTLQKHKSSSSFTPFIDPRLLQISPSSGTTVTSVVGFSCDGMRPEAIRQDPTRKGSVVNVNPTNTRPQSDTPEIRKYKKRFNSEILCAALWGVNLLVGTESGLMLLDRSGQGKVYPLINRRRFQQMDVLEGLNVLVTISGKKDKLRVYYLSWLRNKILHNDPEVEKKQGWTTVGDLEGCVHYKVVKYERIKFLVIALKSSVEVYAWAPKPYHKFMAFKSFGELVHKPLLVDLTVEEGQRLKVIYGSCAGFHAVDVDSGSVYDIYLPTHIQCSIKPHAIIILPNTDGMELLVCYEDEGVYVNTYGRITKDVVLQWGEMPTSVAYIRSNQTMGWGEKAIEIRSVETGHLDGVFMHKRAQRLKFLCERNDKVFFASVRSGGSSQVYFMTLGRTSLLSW
Experimental: as §1

MSSK1 = molecular target: T2, MSSK1 (Homo sapiens, UniProt Q9UPE1)
T2 construct: gene SRPK3
Experimental: as §1

WNK2 = WNK2 (Homo sapiens, UniProt Q9Y3S1)
Experimental: as §1

ACVR2B = ACVR2B (Homo sapiens, UniProt Q13705)
Experimental: as §1

FGFR4 = FGFR4 (Homo sapiens, UniProt P22455)
Experimental: as §1

JAK2 = JAK2 (Homo sapiens, UniProt O60674)
Experimental: as §1

PI3K-A = molecular target: T3, PI3K-A (Homo sapiens, UniProt P42336)
T3 construct: gene PIK3CA; p110alpha/p85alpha
Experimental: as §1

FAK = molecular target: T4, FAK (Homo sapiens, UniProt Q05397)
T4 construct: gene PTK2
T4 sequence (Q05397 whole entry): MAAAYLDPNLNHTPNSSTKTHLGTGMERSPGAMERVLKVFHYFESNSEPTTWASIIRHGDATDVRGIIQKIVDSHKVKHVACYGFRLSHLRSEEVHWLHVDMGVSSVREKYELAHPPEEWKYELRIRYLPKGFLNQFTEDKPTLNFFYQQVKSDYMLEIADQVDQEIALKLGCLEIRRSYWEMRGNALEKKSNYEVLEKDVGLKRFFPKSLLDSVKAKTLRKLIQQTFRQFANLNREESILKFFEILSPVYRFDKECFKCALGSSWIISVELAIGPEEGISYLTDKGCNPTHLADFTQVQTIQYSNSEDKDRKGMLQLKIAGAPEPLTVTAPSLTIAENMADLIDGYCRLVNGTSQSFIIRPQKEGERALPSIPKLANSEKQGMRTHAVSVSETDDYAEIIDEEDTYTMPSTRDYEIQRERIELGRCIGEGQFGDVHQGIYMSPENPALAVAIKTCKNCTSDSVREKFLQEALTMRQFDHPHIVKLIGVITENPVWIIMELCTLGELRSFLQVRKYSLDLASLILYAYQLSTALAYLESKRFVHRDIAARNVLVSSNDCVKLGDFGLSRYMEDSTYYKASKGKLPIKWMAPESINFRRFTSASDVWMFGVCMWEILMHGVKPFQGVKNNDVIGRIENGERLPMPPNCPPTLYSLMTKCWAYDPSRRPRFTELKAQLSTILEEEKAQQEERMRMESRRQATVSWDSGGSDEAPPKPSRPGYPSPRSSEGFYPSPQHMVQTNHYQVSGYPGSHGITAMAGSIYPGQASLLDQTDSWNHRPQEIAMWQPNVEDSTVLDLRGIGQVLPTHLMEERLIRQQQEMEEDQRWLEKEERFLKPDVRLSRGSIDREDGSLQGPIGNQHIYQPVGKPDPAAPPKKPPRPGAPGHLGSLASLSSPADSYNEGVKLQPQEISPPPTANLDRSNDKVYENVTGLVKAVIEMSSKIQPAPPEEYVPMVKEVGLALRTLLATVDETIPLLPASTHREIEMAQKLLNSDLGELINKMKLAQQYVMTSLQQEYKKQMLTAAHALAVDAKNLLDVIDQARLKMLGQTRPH
Experimental: as §1

IKK-alpha = molecular target: T5, IKK-alpha (Homo sapiens, UniProt O15111)
T5 construct: gene CHUK
Experimental: as §1

Srm = molecular target: T6, Srm (Homo sapiens, UniProt Q9H3Y6)
T6 construct: gene SRMS
T6 sequence (Q9H3Y6 whole entry): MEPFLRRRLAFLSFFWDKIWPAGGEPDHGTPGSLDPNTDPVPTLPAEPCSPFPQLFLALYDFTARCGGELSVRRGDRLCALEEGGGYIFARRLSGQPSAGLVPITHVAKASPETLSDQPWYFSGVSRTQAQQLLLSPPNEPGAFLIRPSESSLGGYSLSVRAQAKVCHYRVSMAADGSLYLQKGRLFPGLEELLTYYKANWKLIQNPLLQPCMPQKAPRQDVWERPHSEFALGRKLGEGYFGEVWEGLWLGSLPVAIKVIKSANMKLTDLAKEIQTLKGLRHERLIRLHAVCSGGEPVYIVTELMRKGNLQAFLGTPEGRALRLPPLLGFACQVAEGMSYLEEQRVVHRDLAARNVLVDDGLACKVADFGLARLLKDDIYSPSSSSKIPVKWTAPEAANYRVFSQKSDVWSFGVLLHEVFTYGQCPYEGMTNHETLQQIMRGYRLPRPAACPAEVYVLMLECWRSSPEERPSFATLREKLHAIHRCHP
Experimental: as §1

p38_alpha(direct) = molecular target: T7, p38_alpha(direct) (Homo sapiens, UniProt Q16539)
T7 construct: gene MAPK14; direct
Experimental: as §1

CDK5/p25 = molecular target: T8, CDK5/p25 (Homo sapiens, UniProt Q00535)
T8 construct: p25
Experimental: as §1

TRKA = molecular target: T9, TRKA (Homo sapiens, UniProt P04629)
T9 construct: gene NTRK1
Experimental: as §1

Aurora_A = molecular target: T10, Aurora_A (Homo sapiens, UniProt O14965)
T10 construct: gene AURKA
Experimental: as §1

JNK1_alpha1 = molecular target: T11, JNK1_alpha1 (Homo sapiens, UniProt P45983)
T11 construct: gene MAPK8; isoform alpha1
Experimental: as §1

BRSK1 = BRSK1 (Homo sapiens, UniProt Q8TDC3)
Experimental: as §1

GRK5 = GRK5 (Homo sapiens, UniProt P34947)
GRK5, sequence (P34947 whole entry): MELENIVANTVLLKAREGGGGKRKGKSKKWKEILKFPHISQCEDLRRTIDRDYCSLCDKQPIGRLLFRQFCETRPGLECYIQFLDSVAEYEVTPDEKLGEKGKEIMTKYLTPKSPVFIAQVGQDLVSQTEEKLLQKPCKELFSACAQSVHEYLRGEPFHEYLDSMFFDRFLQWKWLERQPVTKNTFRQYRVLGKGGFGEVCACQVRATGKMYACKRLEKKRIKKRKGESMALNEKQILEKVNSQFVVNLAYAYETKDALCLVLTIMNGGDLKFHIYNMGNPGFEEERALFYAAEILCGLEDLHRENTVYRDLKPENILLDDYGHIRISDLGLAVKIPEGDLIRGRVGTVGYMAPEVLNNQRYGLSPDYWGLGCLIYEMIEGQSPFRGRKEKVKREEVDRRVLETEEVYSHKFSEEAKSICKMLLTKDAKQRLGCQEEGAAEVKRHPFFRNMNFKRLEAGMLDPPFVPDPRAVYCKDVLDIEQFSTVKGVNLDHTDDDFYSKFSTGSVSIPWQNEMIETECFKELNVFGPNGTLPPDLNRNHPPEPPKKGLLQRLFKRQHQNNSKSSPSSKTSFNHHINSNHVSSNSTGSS
Experimental: as §1

CDK2/cyclinA = CDK2/cyclinA (Homo sapiens, UniProt P24941)
Experimental: as §1

INSR = INSR (Homo sapiens, UniProt P06213)
INSR, sequence (P06213 whole entry): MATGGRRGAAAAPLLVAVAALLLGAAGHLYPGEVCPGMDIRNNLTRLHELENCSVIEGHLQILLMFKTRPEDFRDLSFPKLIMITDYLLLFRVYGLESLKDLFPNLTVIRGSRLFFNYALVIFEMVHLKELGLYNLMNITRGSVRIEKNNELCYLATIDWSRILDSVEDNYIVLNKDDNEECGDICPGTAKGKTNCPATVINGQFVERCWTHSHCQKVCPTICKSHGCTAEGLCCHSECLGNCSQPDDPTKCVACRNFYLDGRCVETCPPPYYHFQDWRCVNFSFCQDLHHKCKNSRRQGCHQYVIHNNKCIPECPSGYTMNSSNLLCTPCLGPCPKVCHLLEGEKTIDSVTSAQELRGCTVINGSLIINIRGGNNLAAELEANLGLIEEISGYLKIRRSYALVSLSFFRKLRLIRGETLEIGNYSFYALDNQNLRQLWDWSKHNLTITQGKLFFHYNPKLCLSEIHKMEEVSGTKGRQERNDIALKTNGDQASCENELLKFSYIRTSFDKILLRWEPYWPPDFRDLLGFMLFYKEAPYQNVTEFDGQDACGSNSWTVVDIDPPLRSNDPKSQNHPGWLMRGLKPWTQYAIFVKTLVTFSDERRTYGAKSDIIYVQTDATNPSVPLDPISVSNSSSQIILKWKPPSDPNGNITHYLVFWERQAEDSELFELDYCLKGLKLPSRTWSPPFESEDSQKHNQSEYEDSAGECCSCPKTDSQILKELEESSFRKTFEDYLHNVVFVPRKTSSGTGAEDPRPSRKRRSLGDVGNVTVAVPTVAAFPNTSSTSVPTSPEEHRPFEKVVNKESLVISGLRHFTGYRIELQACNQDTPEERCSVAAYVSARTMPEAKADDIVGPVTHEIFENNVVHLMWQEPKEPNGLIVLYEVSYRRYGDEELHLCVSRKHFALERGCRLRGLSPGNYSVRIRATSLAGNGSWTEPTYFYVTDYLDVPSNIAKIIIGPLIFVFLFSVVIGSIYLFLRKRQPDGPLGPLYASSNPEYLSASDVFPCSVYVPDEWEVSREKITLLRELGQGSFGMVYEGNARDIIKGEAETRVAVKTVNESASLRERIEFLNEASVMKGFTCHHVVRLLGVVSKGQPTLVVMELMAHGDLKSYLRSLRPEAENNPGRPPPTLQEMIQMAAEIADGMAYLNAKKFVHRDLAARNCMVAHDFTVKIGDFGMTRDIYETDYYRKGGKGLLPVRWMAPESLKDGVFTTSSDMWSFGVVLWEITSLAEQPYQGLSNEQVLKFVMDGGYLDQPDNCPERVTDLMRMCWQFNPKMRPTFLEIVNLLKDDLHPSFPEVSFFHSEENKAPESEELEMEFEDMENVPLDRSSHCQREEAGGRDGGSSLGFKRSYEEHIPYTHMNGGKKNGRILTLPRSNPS
Experimental: as §1

Compound `COc1cc2c(cn1)N(C)C(=O)[C@@H](NC(=O)c1nc3n(n1)[C@H](c1ccccc1)CC3)CC2` [GNE684, (S)-N-((S)-7-methoxy-1-methyl-2-oxo-2,3,4,5-tetrahydro-1H-pyrido[3,4-b]azepin-3-yl)-5-phenyl-6,7-dihydro-5H-pyrrolo[1,2-b][1,2,4]triazole-2-carboxamide] has an inhibition at 10 µM (EPHB3) of 3.5%, an inhibition at 10 µM (KIT) of 3% and an inhibition at 10 µM (CHK1) of -7%. It also gave an inhibition at 10 µM (SIK2) of 8.5%, an inhibition at 10 µM (MAP4K4) of 11.5% and an inhibition at 10 µM (MSSK1) of 2.5%. It also gave an inhibition at 10 µM (WNK2) of -8.5%, an inhibition at 10 µM (ACVR2B) of 5% and an inhibition at 10 µM (FGFR4) of -6.5%. For the same compound, the inhibition at 10 µM (JAK2) was 2.5%, the inhibition at 10 µM (PI3K-A) was 16% and the inhibition at 10 µM (FAK) was 7.5%. For the same compound, the inhibition at 10 µM (IKK-alpha) was -3%, the inhibition at 10 µM (Srm) was 9% and the inhibition at 10 µM (p38_alpha(direct)) was 3.5%. The inhibition at 10 µM (CDK5/p25) was 4.5%, the inhibition at 10 µM (TRKA) was -3% and the inhibition at 10 µM (Aurora_A) was 3%. It also gave an inhibition at 10 µM (JNK1_alpha1) of -5.5%, an inhibition at 10 µM (BRSK1) of 2.5% and an inhibition at 10 µM (GRK5) of 4.5%. It also gave an inhibition at 10 µM (CDK2/cyclinA) of 6.5% and an inhibition at 10 µM (INSR) of 3.5%.
